Assay results taken from patent publication US20140090094A1, “MODULATORS OF SLC22A7” (BAYER INTELLECTUAL PROPERTY GmbH, priority 2011, published 2014).

Experiments:
OAT2r = target: T1, OAT2r (Rattus norvegicus, UniProt Q5RLM2); assay: efflux of glutamate from OAT2r-expressing 293 cells (LC-MS/MS); assay type: cell-based
T1 construct: expressed in transfected cells
T1 sequence (Q5RLM2 1-535): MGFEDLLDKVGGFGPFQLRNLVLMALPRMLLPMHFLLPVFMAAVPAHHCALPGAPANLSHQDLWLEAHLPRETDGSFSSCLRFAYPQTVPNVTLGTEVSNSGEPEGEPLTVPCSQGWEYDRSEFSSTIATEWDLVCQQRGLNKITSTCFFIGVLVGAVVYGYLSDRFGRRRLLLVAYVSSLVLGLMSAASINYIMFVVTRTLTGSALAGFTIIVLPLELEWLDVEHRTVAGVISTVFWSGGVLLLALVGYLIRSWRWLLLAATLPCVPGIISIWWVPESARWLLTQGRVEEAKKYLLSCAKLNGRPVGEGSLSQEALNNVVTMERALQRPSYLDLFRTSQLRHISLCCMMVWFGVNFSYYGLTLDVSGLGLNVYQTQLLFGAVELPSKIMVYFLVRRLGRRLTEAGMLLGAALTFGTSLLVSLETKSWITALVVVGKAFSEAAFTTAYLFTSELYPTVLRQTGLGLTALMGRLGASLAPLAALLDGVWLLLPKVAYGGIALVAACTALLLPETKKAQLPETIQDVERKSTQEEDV
Protocol: To test this hypothesis, 293 cells with or without expression of OAT2r were incubated 10 min in uptake buffer; then, the glutamate content of a buffer sample was determined by LC-MS/MS.
(§1) For measurement of solute uptake, cells were grown in surface culture on 60 mm polystyrol dishes (Nunclon 150288, Nunc, Roskilde, Denmark) precoated with 0.1 g/l poly-L-ornithine in 0.15 M boric acid-NaOH, pH 8.4. Cells were used for uptake experiments at a confluence of at least 70%. Uptake was measured at 37° C. Uptake buffer contains 125 mmol/l NaCl, 25 mmol/l HEPES-NaOH pH 7.4, 5.6 mmol/l (+)glucose, 4.8 mmol/l KCl, 1.2 mmol/l KH2PO4, 1.2 mmol/l CaCl2, and 1.2 mmol/l MgSO4. In glutamate efflux experiments, uptake buffer without KH2PO4 was used to avoid MS interference. After preincubation for at least 20 minutes in 4 ml of uptake buffer, the buffer was replaced with 2 ml of substrate in uptake buffer. The total substrate concentration if not indicated otherwise was 0.1 μmol/l for radiotracer assays and 10 μmol/l for unlabeled compounds. Incubation was stopped after 1 min by rinsing the cells four times each with 4 ml ice-cold uptake buffer. Radioactivity was determined, after cell lysis with 0.1% v/v Triton X-100 in 5 mmol/l TRIS-HCl pH 7.4, by liquid scintillation counting. For LCelectrospray ionization-MS/MS analysis, cells were lysed with methanol and stored at −20° C.

OAT3h = target: T2, OAT3h (Homo sapiens, UniProt Q8TCC7); assay: 1 min uptake into 293 cells expressing OAT3h; assay type: cell-based; conditions: for clearance: 1 min uptake, 0.1 μmol/l radiotracer
T2 construct: expressed in transfected cells; host or cells: 293 cells (HEK-293)
T2 sequence (Q8TCC7 1-542): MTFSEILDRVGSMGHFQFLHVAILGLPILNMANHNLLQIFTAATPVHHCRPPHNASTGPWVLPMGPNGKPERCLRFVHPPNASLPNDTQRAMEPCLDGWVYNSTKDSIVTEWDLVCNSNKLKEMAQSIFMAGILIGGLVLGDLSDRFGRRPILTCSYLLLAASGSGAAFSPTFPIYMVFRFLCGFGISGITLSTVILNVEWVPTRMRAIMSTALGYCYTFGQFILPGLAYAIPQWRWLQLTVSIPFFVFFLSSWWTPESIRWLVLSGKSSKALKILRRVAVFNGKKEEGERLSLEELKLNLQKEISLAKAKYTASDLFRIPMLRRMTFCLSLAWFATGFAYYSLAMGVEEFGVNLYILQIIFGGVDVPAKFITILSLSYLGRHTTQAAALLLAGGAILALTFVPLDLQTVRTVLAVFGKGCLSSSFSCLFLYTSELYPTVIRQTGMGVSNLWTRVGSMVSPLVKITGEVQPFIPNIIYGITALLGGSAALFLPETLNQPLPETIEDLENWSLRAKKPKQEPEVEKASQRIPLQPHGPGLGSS
Protocol: Uptake was measured at 37° C.

293 cells = assay: uptake into uninduced control 293 cells (expression off); assay type: cell-based, human; conditions: for clearance kin: 10 μmol/l unlabeled substrate
Protocol: Time course of trigonelline uptake. Cells grown in dishes were incubated at 37° C. with 10 μmol/l unlabeled trigonelline in uptake buffer for the indicated periods, washed, and lysed. The function for non-linear regression was y=y0+kin/kout*cout*(1−exp(−kout*x)); parameter y0 allows for trigonelline accumulation from the culture medium.
293 cells (ATCC CRL-1573; also known as HEK-293 cells), a transformed cell line derived from human embryonic kidney, were grown at 37° C. in a humidified atmosphere (5% CO2) in plastic culture flasks (Falcon 3112, Becton Dickinson, Heidelberg, Germany). The growth medium was Dulbecco's Modified Eagle Medium (Life Technologies 31885-023, Invitrogen, Karlsruhe, Germany) supplemented with 10% fetal calf serum (PAA Laboratories, Cölbe, Germany). Medium was changed every 2-3 days and the culture was split every 5 days. Stably transfected cell lines were generated as reported previously (Bach M et al. FEBS Journal 2007; 274:783-790.). As there is no integration of vector pEBTetD into the genome, clonal isolation of transfected cells is not necessary; we thus use cell pools rather than single cell clones. Cell culture medium always contained 3 μg/ml puromycin (PAA Laboratories) to ascertain plasmid maintenance. To turn on protein expression, cells were cultivated for at least 20 h in regular growth medium supplemented with 1 μg/ml doxycycline (195044, MP Biomedicals, Eschwege, Germany).
as §1
After centrifugation (1 min, 16000×g, 20° C.) of thawed lysates, 100 μl of the supernatant was mixed with either 10 μl unlabeled MPP+ iodide (0.5 ng/μl) or biphenyl-4-carboxylic acid (Sigma-Aldrich) as internal standard. Of this mixture, […] were analyzed by LCMS/MS on a triple quadrupole mass spectrometer (4000 Q TRAP, Applied Biosystems, Darmstadt, Germany). […] Atmospheric pressure ionization with positive or negative electrospray was used. For quantification (scan time 150 ms), the optimal collision energy for argon-induced fragmentation in the second quadrupole was determined for each analyte. […] Linear calibration curves were constructed from at least six standards which were prepared using control cell lysates as solvent. Sample analyte content was calculated from the analyte response ratio and the slope of the calibration curve, obtained by linear regression. With LC-MS quantitation, solute content of cell lysates was determined for 4 conditions (paired dishes, incubation time 1 min): a) transporter expression on, uptake buffer; b) expression off, uptake buffer; c) expression on, substrate in uptake buffer; d) expression off, substrate in uptake buffer. Acute uptake mediated by heterologously expressed carrier was then calculated as (c−a)−(d−b). This approach takes into account endogenous solute content and non-specific uptake.

[1] = cited from earlier work
[2] = time course, uninduced control cells

With N[C@@H](CCC(=O)O)C(=O)O [glutamate] the “release of glutamate upon expression of OAT2 (in words)” value (OAT2r; 10 min in uptake buffer, without extracellular exchange substrate) was “markedly increased release”, the “transport of glutamate (in words)” value (OAT3h) was “do not transport” and the clearance (OAT3h) was 0.2±0.6 μl min-1 mg protein-1.
With O=C(O)c1cc(=O)[nH]c(=O)[nH]1 [orotic acid] the intracellular content (293 cells; 10 μmol/l unlabeled orotic acid, after 60 min, cells lacking the transporter) was 0.05 nmol/mg protein, the “cell content directly after washing” value (293 cells; 1 h, 37° C. preloading with 100 μmol/l 3H-orotic acid, uninduced control cells, n=4) was 3.5±0.1 nmol/mg protein and the “non-specific uptake into control cells, slope” value (293 cells; saturation experiment, 1 min, expression off) was 0.56 μl min-1 mg protein-1. For the same compound, the clearance kin (293 cells; [2]) was 0.58±0.12 μl min-1 mg protein-1, the kout (293 cells; time course, unlabeled orotic acid, expression off) was 0.12 ± 0.03 min⁻¹ and the pKa [1] was “≈ 2.4”. For the same compound, the “effect on efflux of glutamate (in words)” value (OAT2r; 1 mmol/l compound in uptake buffer, 10 min) was “strongly trans-stimulated efflux of glutamate” and the clearance (OAT3h) was 0.7±0.1 μl min-1 mg protein-1.
Work on C[n+]1cccc(C(=O)[O-])c1 [trigonelline] yielded a clearance kin (293 cells; [2]) of 0.11±0.01 μl min-1 mg protein-1.
